The record followed here is patent US11040036B2, “Pyruvate kinase activators for use in treating blood disorders” (Agios Pharmaceuticals, Inc., priority 2017, dated 2021).

Assay [1] concerns the target T1, wild type PKR (Homo sapiens, UniProt P30613). Briefly: PKR mutant assay (AC50), wild type PKR. Format: biochemical. The conditions noted are these: wild type PKR enzyme; read-out: PKR WT AC50. In short, it runs like this:
(§1)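 Human wild-type PKR or R510Q/K410E mutant (40-400 ng/well) in 50 mM Tris pH 7.5, 100 mM KCl, 5 mM MgCl2, 1 mM DTT, 0.03% BSA with PEP 0.1-0.5 mM, 180 μM NADH and LDH coupling. Compound (11-point 3-fold series from 100 μM final) preincubated 60 min at room temperature. Reaction was started with ADP (0.2-1.65 mM) and NADH depletion was followed at 340 nm to give AC50.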

In a further assay the target is PKR K410E (Homo sapiens, UniProt P30613, K410E). Briefly: PKR mutant assay (AC50), PKR K410E. Format: biochemical. The settings on record: PKR K410E mutant enzyme. In short, it runs like this:
as §1

The next assay deals with PKR R510Q (Homo sapiens, UniProt P30613, R510Q). As to the kind of experiment: PKR mutant assay (AC50), PKR R510Q. The conditions noted are these: PKR R510Q mutant enzyme; read-out: PK R510Q AC50. Type of assay: biochemical. In short, it runs like this: as §1
Assay [2] concerns the target T1, wild type PKR. As to the kind of experiment: Cell based ATP assay in purified red blood cells. Details: endogenous in cells; host or cells: purified red blood cells from blood of healthy volunteers. The conditions noted are these: RBCs, overnight at 37° C., ATP levels by Cell-Titer-Glo. In short, it runs like this:
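Leukocyte-depleted red cells from healthy volunteers were held in AGAM (PBS, glucose, adenine, mannitol) at 1×10^7 cells/mL. They were treated with 1:4 serial compound dilutions at 0.1% DMSO final and incubated overnight at 37 °C in humidity. ATP was then quantified by CellTiter-Glo luminescence.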

Molecules are shown by their SMILES.

PKR K410E, sequence (P30613 whole entry K410E): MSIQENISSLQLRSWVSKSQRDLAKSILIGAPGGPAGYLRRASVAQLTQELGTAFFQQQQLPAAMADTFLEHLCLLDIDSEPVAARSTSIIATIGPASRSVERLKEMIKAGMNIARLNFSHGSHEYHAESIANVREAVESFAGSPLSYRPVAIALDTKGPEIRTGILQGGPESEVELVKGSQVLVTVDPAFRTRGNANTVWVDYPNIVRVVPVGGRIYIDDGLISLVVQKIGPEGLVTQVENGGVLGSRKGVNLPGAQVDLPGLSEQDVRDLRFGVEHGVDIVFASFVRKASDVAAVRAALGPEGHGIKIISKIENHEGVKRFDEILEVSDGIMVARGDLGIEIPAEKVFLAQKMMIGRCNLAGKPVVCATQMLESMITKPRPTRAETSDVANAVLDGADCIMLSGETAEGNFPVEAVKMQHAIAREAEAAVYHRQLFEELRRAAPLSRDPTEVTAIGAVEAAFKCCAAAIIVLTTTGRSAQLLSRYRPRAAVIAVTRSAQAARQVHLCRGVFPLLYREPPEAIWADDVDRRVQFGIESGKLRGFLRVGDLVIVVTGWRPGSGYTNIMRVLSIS
PKR R510Q, sequence (P30613 whole entry R510Q): as the sequence (P30613 whole entry K410E) above, with E410K, R510Q counted along it
T1 sequence (P30613 whole entry): as the sequence (P30613 whole entry K410E) above, with E410K counted along it

`Cn1c2nc(Cc3cc[nH]n3)sc2c2cnn(Cc3ccsn3)c(=O)c21`: the AC50 (as a rule, the concentration at which the activity in the assay is half-maximal) on wild type PKR [1] is less than 300 nM; at PKR K410E, less than 300 nM; at PKR R510Q, less than 300 nM; on wild type PKR [2], no more than 1000 nM.

For the molecule `Cn1c2nc(Cc3c[nH]cn3)sc2c2cnn(Cc3ncsc3C(F)(F)F)c(=O)c21`, the AC50 on wild type PKR [1] was greater than 800 nM; at PKR K410E, greater than 800 nM; at PKR R510Q, greater than 800 nM; on wild type PKR [2], greater than 1000 nM.

On to `Cn1c2nc(Cc3cc[nH]n3)sc2c2cnn(Cc3coc(Cl)n3)c(=O)c21`, for which the AC50 at wild type PKR [1] was less than 300 nM; at PKR K410E, less than 300 nM; at PKR R510Q, less than 300 nM; at wild type PKR [2], no more than 1000 nM.

Regarding `Cn1c2nc(Cn3cncn3)sc2c2cnn(Cc3ccnc(N)n3)c(=O)c21`, the half-maximal activity concentration (AC50) at wild type PKR [1], at PKR K410E and at PKR R510Q was greater than 800 nM each time. For the same molecule, the “Cell based ATP assay AC50” value at wild type PKR [2] is reported as “No Fit”.

With `Cn1c2nc(Cc3cc[nH]n3)sc2c2cnn(Cc3cnsc3)c(=O)c21`, the half-maximal activity concentration (AC50) on wild type PKR [1] is less than 300 nM; on PKR K410E, less than 300 nM; at PKR R510Q, less than 300 nM; on wild type PKR [2], no more than 1000 nM.

Take `Cn1c2nc(Cc3cc[nH]n3)sc2c2cnn(Cc3ncsc3N)c(=O)c21`: the AC50 on wild type PKR [1] was less than 300 nM; at PKR K410E it was less than 300 nM; on PKR R510Q, less than 300 nM; on wild type PKR [2], no more than 1000 nM.

For `Cn1c2nc(Cc3cc[nH]n3)sc2c2cnn(Cc3c[nH]c(C(N)=O)n3)c(=O)c21`, the AC50 at wild type PKR [1] is less than 300 nM; on PKR K410E it was less than 300 nM; on PKR R510Q it was less than 300 nM; at wild type PKR [2], no more than 1000 nM.

On to `Cn1c2nc(Cc3cc[nH]n3)sc2c2cnn(Cc3cccnc3)c(=O)c21`, for which the AC50 on wild type PKR [1] was less than 300 nM; on PKR K410E it was less than 300 nM; on PKR R510Q, less than 300 nM; on wild type PKR [2] it was no more than 1000 nM.

Consider `Cn1c2nc(Cc3cc[nH]n3)sc2c2cnn(Cc3cc[nH]c(=O)c3)c(=O)c21`, for which the AC50 at wild type PKR [1] is less than 300 nM; on PKR K410E it was less than 300 nM; at PKR R510Q it was 301 to 800 nM; at wild type PKR [2] it was no more than 1000 nM.

In the case of `Cn1ccc(Cn2ncc3c4sc(C(=O)c5cc[nH]n5)nc4n(C)c3c2=O)n1`, the AC50 is greater than 800 nM at wild type PKR [1], greater than 800 nM on PKR K410E, greater than 800 nM at PKR R510Q and no more than 1000 nM on wild type PKR [2].

In the case of `Cn1ccc(Cn2ncc3c4sc(Cc5cccc(N)n5)nc4n(C)c3c2=O)n1`, the AC50 is less than 300 nM on wild type PKR [1], less than 300 nM at PKR K410E, less than 300 nM at PKR R510Q and no more than 1000 nM on wild type PKR [2].

In the case of `Cn1c2nc(Cc3cc[nH]n3)sc2c2cnn(Cc3n[nH]c(=O)[nH]3)c(=O)c21`, the AC50 on wild type PKR [1] is greater than 800 nM; at PKR K410E, greater than 800 nM; on PKR R510Q, greater than 800 nM; on wild type PKR [2] it was greater than 1000 nM.

As for `Cn1c2nc(Cc3cc[nH]n3)sc2c2cnn(Cc3ncsc3Br)c(=O)c21`, the AC50 at wild type PKR [1] was less than 300 nM; on PKR K410E it was less than 300 nM; on PKR R510Q it was less than 300 nM; at wild type PKR [2], no more than 1000 nM.

In the case of `Cn1c2nc(Cc3cc[nH]n3)sc2c2cnn(Cc3cnc(N)o3)c(=O)c21`, the AC50 on wild type PKR [1] is less than 300 nM; on PKR K410E, less than 300 nM; at PKR R510Q, 301 to 800 nM; on wild type PKR [2] it was no more than 1000 nM.

Regarding `Cn1c2nc(Cc3cc[nH]n3)sc2c2cnn(Cc3csc(N)n3)c(=O)c21`, the AC50 is less than 300 nM on wild type PKR [1], less than 300 nM at PKR K410E, less than 300 nM on PKR R510Q and no more than 1000 nM at wild type PKR [2].

Regarding `Cn1c2nc(Cc3cc[nH]n3)sc2c2cnn(Cc3nc[nH]c3C(N)=O)c(=O)c21`, the AC50 on wild type PKR [1] was 301 to 800 nM; on PKR K410E, 301 to 800 nM; on PKR R510Q it was greater than 800 nM; on wild type PKR [2] it was greater than 1000 nM.
